According to patent US12122802B2, “D-allose crystal and production method thereof” (MATSUTANI CHEMICAL INDUSTRY CO., LTD., priority 2019, dated 2024):

What was measured:
[1] = repose angle measured by powder tester PT-E (fluidity of anhydrous D-allose crystals); assay type: physicochemical; settings: for Repose angle (degrees): drying tests of Table 6, crystals after the named drying conditions; for Degree of fluidity: drying tests of Table 6, evaluated from repose angle according to Table 4
Description: The fluidity of the anhydrous D-allose crystals obtained by drying the hydrous crystals obtained in each of Tests Nos. 1 to 12 with an evaporator (30° C., 20 hPa (abs), about 2 hours) as described above was evaluated by the repose angle measured by a powder tester PT-E (manufactured by Hosokawa Micron Corporation). Specifically, a sample was dropped and deposited on a disk, and the inclination angle was measured from three directions to obtain an average value. From the average value, the degree of fluidity was evaluated according to Table 1 in the Japanese Pharmacopoeia, 17th edition, Reference Information G2 physical property-related “Powder Fluidity” (same as the so-called Carr's fluidity index table, shown as Table 4).
(§1) In order to measure the water content in the crystals obtained by each of the drying methods, drying under reduced pressure under conditions at 70° C. for 18 hours was performed to calculate the water content in the crystals from the weight loss through the drying under reduced pressure. The repose angle was measured by the method described above to determine the degree of fluidity. The yield rate was calculated by the following expression. Yield rate (%)=(D/C)×100 [Expression 4]

[2] = water content in crystals from weight loss on drying under reduced pressure at 70° C. for 18 hours; assay type: physicochemical; settings: hydrous D-allose crystals (purity 99.9%, water content 17.7%) dried under the named drying conditions
Description: as §1

active oxygen in cells = settings: cited from earlier work
[3] = in vivo; cited from earlier work
cancer cells = settings: cited from earlier work

SMILES	Repose angle (degrees) [1] [degrees]	Degree of fluidity [1]	Water content (%) after drying [2] [%]	effect on generation of active oxygen in cells (active oxygen in cells)	effect on increase in blood pressure [3]	effect on growth of cancer cells (cancer cells)
O=C[C@H](O)[C@H](O)[C@H](O)[C@H](O)CO [Convection heat transfer drying at 40° C., Air supply: 3900 ] [D-allose]	41.3	Passable (41~45)	0.14	–	–	–
O=C[C@H](O)[C@H](O)[C@H](O)[C@H](O)CO [Conductive heat transfer drying at 40° C.] [D-allose]	41.3	Passable (41~45)	0.13	–	–	–
O=C[C@H](O)[C@H](O)[C@H](O)[C@H](O)CO [Conductive heat transfer drying at 60° C.] [D-allose]	41.7	Passable (41~45)	0.18	–	–	–
O=C[C@H](O)[C@H](O)[C@H](O)[C@H](O)CO [D-allose]	–	–	–	effect for suppressing generation of active oxygen in cells	effect for suppressing an increase in blood pressure	effect for suppressing growth of cancer cells
O=C[C@H](O)[C@H](O)[C@H](O)[C@H](O)CO [Convection heat transfer drying at 40° C., Air supply: 6000 ] [D-allose]	41.7	Passable (41~45)	0.13	–	–	–
O=C[C@H](O)[C@H](O)[C@H](O)[C@H](O)CO [Conductive heat transfer drying at 50° C.] [D-allose]	42	Passable (41~45)	0.099	–	–	–
O=C[C@H](O)[C@H](O)[C@H](O)[C@H](O)CO [Ultra-low humidity drying (20 to 24° C.), D-allose]	45.7	Passable (41~45)	0.052	–	–	–
